Results published in US10028961B2, “Therapeutically active compounds and their methods of use” (AGIOS PHARMACEUTICALS, INC., priority 2013, dated 2018).

Columns and labels:
[1] = target: IDH1-R132H homodimer enzyme (Homo sapiens (Human), UniProt O75874, R132H); experiment: In vitro assay IDH1-R132H homodimer, NADPH depletion assay with NADPH/NADP preincubation; assay type: biochemical; settings: 5 μM NADPH and 37.5 μM NADP
How it was run: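 Conversion of alpha-ketoglutarate to 2-hydroxyglutarate tracked by NADPH depletion. Reaction started with 5 mM alpha-ketoglutarate plus NADPH substrate mix (50 μl total), 60 min at room temperature. Leftover NADPH quantified via diaphorase/resazurin fluorescence.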

[2] = target: IDH1 wt/IDH1 R132C heterodimer (Homo sapiens (Human), UniProt O75874, R132C); experiment: In vitro assay for IDH1m R132C inhibitors, IDH1 wt/IDH1 R132C heterodimer, NADPH depletion (diaphorase/resazurin); assay type: biochemical; settings: NADPH/NADP
IDH1 wt/IDH1 R132C heterodimer, sequence (O75874 whole entry R132C): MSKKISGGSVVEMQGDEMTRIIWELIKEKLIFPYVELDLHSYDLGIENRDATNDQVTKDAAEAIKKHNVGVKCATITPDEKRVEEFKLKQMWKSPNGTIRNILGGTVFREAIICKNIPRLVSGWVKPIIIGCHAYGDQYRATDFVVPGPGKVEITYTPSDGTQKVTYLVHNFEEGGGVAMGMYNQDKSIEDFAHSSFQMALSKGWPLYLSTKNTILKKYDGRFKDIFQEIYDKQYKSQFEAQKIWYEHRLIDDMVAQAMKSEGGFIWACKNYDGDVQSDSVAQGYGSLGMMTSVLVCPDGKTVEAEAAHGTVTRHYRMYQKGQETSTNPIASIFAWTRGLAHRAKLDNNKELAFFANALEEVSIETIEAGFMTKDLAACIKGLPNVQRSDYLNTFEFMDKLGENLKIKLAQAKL
IDH1 wt/IDH1 R132C heterodimer, sequence (O75874 whole entry, stated change not applied): as the sequence (O75874 whole entry R132C) above, with C132R counted along it
How it was run: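 Remaining NADPH was measured by diaphorase/resazurin conversion (5 min, 25 °C) as resorufin fluorescence, Ex 544/Em 590. DMSO was diluted 1:50 into the reaction, and IC50s were derived.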

[3] = tested on: U87MG pLVX-IDH2 R140Q-neo cells; experiment: U87MG pLVX-IDH2 R140Q-neo cell based assay, 2-HG by LC-MS; settings: Homo sapiens, U-87 MG
[4] = tested on: Neurosphere cells (TS603); experiment: Cellular assay for IDH1m R132H inhibitors, 2-HG by LC-MS in neurosphere cells (TS603); assay type: cell-based; settings: 2-HG in media at 48 hours
How it was run: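 TS603 neurosphere cells in NeuroCult medium were dosed with compound (0.25% DMSO final) at 37 C, 5% CO2. After 48 hours, medium 2-HG was measured by LC-MS. At 72 hours, viability was read by CellTiter-Glo luminescence.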

IDH1-R132H homodimer enzyme, sequence (O75874 whole entry R132H): as the sequence (O75874 whole entry R132C) above, with C132H counted along it

IC50 [1]	IC50 [2]	IC50 [3]	IC50 [4]	Structure (SMILES)
100 to 1000 nM	< 50 nM	< 50 nM	< 50 nM	FC1(F)CCC(Nc2nc(NC3CCC(F)(F)C3)nc(-c3nccc(C(F)(F)F)n3)n2)C1 (centres unmarked) [Compound 237]
100 to 1000 nM	50 to 100 nM	< 50 nM	< 50 nM	N#CC1(c2cc(Nc3nc(NC4CC5(C4)CC(F)(F)C5)nc(-c4cccc(C(F)(F)F)n4)n3)ccn2)CC1 [Compound 229]
100 to 1000 nM	< 50 nM	< 50 nM	< 50 nM	CC(F)(F)c1cccc(-c2nc(NC3CC(F)(F)C3)nc(NC3CC(F)(F)C3)n2)n1 [Compound 187]
< 50 nM	< 50 nM	< 50 nM	< 50 nM	N#Cc1cc(Nc2nc(NC3CCC(F)(F)C3)nc(-c3cccc(C(F)(F)F)n3)n2)ccn1 (centres unmarked) [Compound 181]
100 to 1000 nM	100 to 1000 nM	< 50 nM	< 50 nM	CC(C#N)Nc1nc(Nc2ccnc(C(C)(F)F)c2)nc(-c2cccc(C(F)(F)F)n2)n1 (centres unmarked) [Compound 253]
100 to 1000 nM	< 50 nM	< 50 nM	< 50 nM	CC(CC#N)Nc1nc(N[C@H](C)C2CC2)nc(-c2cccc(C(F)(F)F)n2)n1 (some centres unmarked) [Compound 214]
50 to 100 nM	< 50 nM	< 50 nM	< 50 nM	FC1(F)CCC(Nc2nc(NC3CCC(F)(F)CC3)nc(-c3cncc(Cl)n3)n2)CC1 [Compound 147]
50 to 100 nM	< 50 nM	< 50 nM	< 50 nM	Clc1cccc(-c2nc(NC(C3CC3)C3CC3)nc(NC(C3CC3)C3CC3)n2)n1 [Compound 131]
< 50 nM	< 50 nM	< 50 nM	< 50 nM	CC(Nc1nc(N[C@H](C)C2CC2)nc(-c2cccc(C(F)(F)F)n2)n1)C(F)(F)F (some centres unmarked) [Compound 203]
< 50 nM	< 50 nM	< 50 nM	< 50 nM	FC1(F)CCC(Nc2nc(NC3CCC(F)(F)C3)nc(-n3ccc(C(F)(F)F)n3)n2)C1 (centres unmarked) [Compound 146]
< 50 nM	< 50 nM	< 50 nM	< 50 nM	CC(Nc1nc(Nc2ccnc(C3(C#N)CC3)c2)nc(-c2cccc(Cl)n2)n1)C(F)(F)F (centres unmarked) [Compound 134]
< 50 nM	< 50 nM	< 50 nM	< 50 nM	FC1(F)CCC(Nc2nc(NC3CCC(F)(F)C3)nc(-c3cccc(Cl)n3)n2)C1 (centres unmarked) [Compound 113]
> 1000 nM	100 to 1000 nM	< 50 nM	50 to 100 nM	FC1(F)CCC(Nc2nc(NC3CCC(F)(F)C3)nc(-c3cccc(OC(F)(F)F)n3)n2)C1 (centres unmarked) [Compound 252]
100 to 1000 nM	< 50 nM	< 50 nM	< 50 nM	FC1(F)CCC(Nc2nc(NC3CC4(C3)CC(F)(F)C4)nc(-c3cccc(C(F)(F)F)n3)n2)C1 (centres unmarked) [Compound 191]
50 to 100 nM	< 50 nM	< 50 nM	< 50 nM	C[C@@H](Nc1nc(NC(C2CC2)C2CC2)nc(-c2cccc(C(F)(F)F)n2)n1)C1CC1 [Compound 193]
< 50 nM	< 50 nM	< 50 nM	< 50 nM	N#CC1(c2cc(Nc3nc(NC4CCC(F)(F)C4)nc(-c4cccc(C(F)(F)F)n4)n3)ccn2)CC1 (centres unmarked) [Compound 151]
100 to 1000 nM	50 to 100 nM	100 to 1000 nM	< 50 nM	FC1(F)CCC(Nc2nc(NC3CCN(c4ncccn4)C3)nc(-c3cccc(C(F)(F)F)n3)n2)C1 (centres unmarked) [Compound 227]
< 50 nM	< 50 nM	< 50 nM	< 50 nM	FC1(F)CC(Nc2nc(NC3CC(F)(F)C3)nc(-c3nc(C(F)(F)F)cs3)n2)C1 [Compound 128]
50 to 100 nM	< 50 nM	< 50 nM	< 50 nM	CCC(Nc1nc(NC(CC)C2CC2)nc(-c2cccc(Cl)n2)n1)C1CC1 (centres unmarked) [Compound 110]
100 to 1000 nM	< 50 nM	< 50 nM	< 50 nM	FC(F)c1cccc(-c2nc(NC3CCC(F)(F)CC3)nc(NC3CCC(F)(F)CC3)n2)n1 [Compound 224]
< 50 nM	< 50 nM	< 50 nM	< 50 nM	CC(C)(C)Nc1nc(Nc2ccnc(C#N)c2)nc(-c2cccc(C(F)(F)F)n2)n1 [Compound 162]
> 1000 nM	100 to 1000 nM	50 to 100 nM	≥ 1000 nM	FC1(F)CCC(Nc2nc(NC3CCC(F)(F)CC3)nc(-c3nccc(C(F)(F)F)n3)n2)CC1 [Compound 293]
100 to 1000 nM	< 50 nM	< 50 nM	< 50 nM	N#CC1(c2cc(Nc3nc(NC4CCC(F)(F)CC4)nc(-c4cccc(C(F)(F)F)n4)n3)ccn2)CC1 [Compound 189]
50 to 100 nM	< 50 nM	< 50 nM	< 50 nM	N#Cc1cc(Nc2nc(NC3CC(F)(F)C3)nc(-c3cccc(C(F)(F)F)n3)n2)ccn1 [Compound 213]
100 to 1000 nM	50 to 100 nM	100 to 1000 nM	< 50 nM	FC1(F)CCC(Nc2nc(NC3CCN(c4ccccn4)C3)nc(-c3cccc(C(F)(F)F)n3)n2)C1 (centres unmarked) [Compound 222]
50 to 100 nM	< 50 nM	< 50 nM	< 50 nM	FC1(F)CC(Nc2nc(NC3CC(F)(F)C3)nc(-n3ccc(C(F)(F)F)n3)n2)C1 [Compound 126]
< 50 nM	< 50 nM	< 50 nM	< 50 nM	FC1(F)CCC(Nc2nc(Nc3ccnc(C(F)(F)F)c3)nc(-c3cccc(Cl)n3)n2)C1 (centres unmarked) [Compound 115]
> 1000 nM	50 to 100 nM	< 50 nM	< 50 nM	FC1(F)CC(Nc2nc(NC3CC(F)(F)C3)nc(-c3nccc(C(F)(F)F)n3)n2)C1 [Compound 256]
< 50 nM	< 50 nM	< 50 nM	< 50 nM	CC(F)(F)c1cccc(-c2nc(NC3CCC(F)(F)C3)nc(NC3CCC(F)(F)C3)n2)n1 (centres unmarked) [Compound 105]
